≈ marks a conversion by molar mass, not a printed value. Where only a bound is given, the exact number is not on record here.

Experimental findings from PubChem BioAssay AID1996 are described below.

For this data set the following is noted: buffer; pH 7.4; 200.0 µM.
By solubility (kinetic) is commonly meant solubility judged after dilution from a stock solution rather than from solid. Molecule `Cc1ccc(NC(=S)N2CCCCC2)cc1C` returned a kinetic solubility of 30.5 µg/mL (≈ 123 µM). Then `O=C(CCn1ccnc1)Nc1nc2ccccc2[nH]1`, with above 38.3 µg/mL; and `CC1CCCC(C)N1C(=O)COC(=O)c1cncc(Br)c1` (stereo unspecified), with above 53.3 µg/mL.

Take `CN(CC(=O)Nc1cccc(Cl)c1)C1=NS(=O)(=O)c2ccccc21`: the solubility (kinetic) came out at 3.7 µg/mL (≈ 10.2 µM). Turning to `CC(C)Cn1cc(Cl)c(=O)n(CC(C)C)c1=O`, the solubility (kinetic) is above 38.8 µg/mL. In the case of `FC(F)(F)c1nc2cc3nc4ccccc4[nH]c3cc2n1` it was 9.2 µg/mL (≈ 31.9 µM); in that of `O=C(CCNc1ccccc1)c1cccc([N+](=O)[O-])c1`, 32.7 µg/mL (≈ 121 µM); in that of `COc1ccc(NC(C)c2ccccc2)cc1` (stereo unspecified), 16.9 µg/mL (≈ 74.3 µM). In the case of `O=C(NCc1ccco1)c1ccc(-c2ccc(Cl)cc2)o1` it was 1.2 µg/mL (≈ 3.98 µM); in that of `CC(C)c1ccccc1NC(=S)NCc1ccncc1`, 41.1 µg/mL (≈ 144 µM). Take `COc1ccccc1NS(=O)(=O)c1cn(C)cn1`: the solubility (kinetic) is above 40.1 µg/mL. In the case of `O=C(CCNC(=O)c1ccccc1)NC1CCCc2ccccc21` (stereo unspecified) it was 43.4 µg/mL (≈ 135 µM).

Turning to `Cc1ccc(C(=O)NCC(=O)Nc2ccc(Cl)cc2)s1`, the kinetic solubility came to 4.6 µg/mL (≈ 14.9 µM). The molecule `COc1ccc2oc(C(=O)N3CCN(S(=O)(=O)c4ccc(F)cc4)CC3)c(C)c2c1` had a solubility (kinetic) of 7.5 µg/mL (≈ 17.3 µM). For `NC(=O)C1CCN(c2ccc(C(F)(F)F)cn2)CC1`, the kinetic solubility is above 41 µg/mL. In the case of `CC(Sc1ncnc2sc(-c3ccccc3)cc12)C(N)=O` (stereo unspecified) it was 0.8 µg/mL (≈ 2.54 µM); in that of `Cc1ccc2c(=O)cc(C(=O)NCc3ccccc3)oc2c1C`, below 0.7 µg/mL. `O=C(Nc1ccc(OC(F)(F)F)cc1)c1ccc2nccnc2c1` registered a solubility (kinetic) of 11.4 µg/mL (≈ 34.2 µM). In the case of `CCCc1nc(SCC(=O)NC2CC2)c2c(C)c(C)sc2n1` it was 0.8 µg/mL (≈ 2.38 µM).

Molecule `CCP(=O)(c1cccc([N+](=O)[O-])c1)c1cccc([N+](=O)[O-])c1` had a solubility (kinetic) above 48 µg/mL.

As for `CCN(c1ccccc1)S(=O)(=O)c1cccc(C(=O)OCC(=O)Nc2ccc(NC(C)=O)cc2)c1`, the kinetic solubility amounted to 2.6 µg/mL (≈ 5.25 µM). The molecule `Nc1ccccc1C(=O)NCCCN1CCOCC1` returned a solubility (kinetic) above 39.5 µg/mL. In the case of `Cc1ccc(C(=O)COC(=O)c2cnccn2)cc1C`, the solubility (kinetic) is 38.7 µg/mL (≈ 143 µM). In turn, `O=[N+]([O-])c1ccc(Cc2ccccn2)cc1` registered a solubility (kinetic) above 32.1 µg/mL. In the case of `CCCN1C(=O)c2ccccc2NC1c1ccc(Cl)c(Cl)c1` (stereo unspecified) it was 11.9 µg/mL (≈ 35.5 µM); in that of `N#C/C(=C(/O)c1ccc([N+](=O)[O-])cc1)c1nc2ccccc2[nH]1`, below 0.2 µg/mL. Then `O=[N+]([O-])c1ccc(Cl)c(NC(=S)N2CCCC2)c1`, with 9.7 µg/mL (≈ 33.9 µM). Then `CN1C(c2ccccc2)=NO[C@]1(C)c1ccccc1`, with 35.9 µg/mL (≈ 142 µM); and `COc1ccc(C(=O)COC(=O)[C@@H](NS(=O)(=O)c2ccccc2)C(C)C)cc1`, with 7.8 µg/mL (≈ 19.2 µM). For the molecule `O=C(O)CCC(=O)N1CCC[C@H]1C(=O)O`, the kinetic solubility was above 32.3 µg/mL. In the case of `O=C(OCC(=O)N1CCCC1)c1ccc(Cl)nc1` it was above 40.3 µg/mL; in that of `COC(=O)c1cc(S(=O)(=O)N2CCC(C)CC2)cn1C`, 41.9 µg/mL (≈ 139 µM). In turn, `O=C(CN1C(=O)c2ccccc2C1=O)NC1CCC(O)CC1` (stereo unspecified) yielded a solubility (kinetic) above 45.3 µg/mL. In the case of `Cc1ccc(C)c(NC(=O)Nc2ccc3c(c2)OCO3)c1` it was 1 µg/mL (≈ 3.52 µM); in that of `Cc1ccc(S(=O)(=O)N2CCOCC2)cc1NC(=O)COC(=O)c1ccc(Cl)nc1`, above 68.1 µg/mL. Then `COc1ccc(CC(=O)NCc2ccc3c(c2)cc(C)n3C)cc1OC`, with 20.8 µg/mL (≈ 59 µM). `CC(=O)c1c(C)oc2ccc(NS(=O)(=O)c3ccc(F)cc3C)cc12`: the solubility (kinetic) is below 0.8 µg/mL. In turn, `CCc1c(C(=O)NC(C)C2CCCO2)csc1C` (stereo unspecified) came in with a solubility (kinetic) of 35.9 µg/mL (≈ 134 µM). The molecule `O=C(NCCCSc1ccccc1)c1cccnc1` came in with a solubility (kinetic) above 40.9 µg/mL.

As to `O=Cc1ccc(OCC(=O)Nc2ccccc2-c2ccccc2)cc1`, the solubility (kinetic) came to 0.8 µg/mL (≈ 2.41 µM). In the case of `CC(C)N(C(=O)c1ccc(-c2ccccc2F)cc1)C(C)C` it was 23.4 µg/mL (≈ 78.2 µM); in that of `CC(=O)Nc1ccc2c(c1)CCc1ccccc1-2`, 3.9 µg/mL (≈ 16.4 µM); in that of `N#Cc1c(-c2ccc(Cl)cc2)cc(-c2cccs2)nc1SCC(=O)O`, 13.2 µg/mL (≈ 34.1 µM). `Cc1ccsc1C(=O)OCC(=O)NC1CCCCC1C` (stereo unspecified) showed a solubility (kinetic) of 12 µg/mL (≈ 40.6 µM). `CC1(C)NC(=O)N(CC(=O)OCC(=O)c2ccc(Cl)s2)C1=O` came in with a solubility (kinetic) above 51.7 µg/mL. Then `COC(=O)c1cc(C(=O)OC)cc(-n2c(C)cc(C=O)c2C)c1`, with 35.8 µg/mL (≈ 114 µM). In the case of `O=C1C2C3CCC(C3)C2C(=O)N1c1ccc2ccccc2c1` (stereo unspecified), the solubility (kinetic) was found to be 5 µg/mL (≈ 17.2 µM). For `COc1ccccc1N1CC(C(=O)NCC2COc3ccccc3O2)CC1=O` (stereo unspecified), the kinetic solubility was above 57.4 µg/mL. As for `CN(C)C(CNC(=O)c1ccccc1C(F)(F)F)c1ccco1` (stereo unspecified), the kinetic solubility was above 48.9 µg/mL. In the case of `CC1(C)CC(=O)c2cc(NC(=O)c3ccc(F)cc3)c(=O)oc2C1` it was 2 µg/mL (≈ 6.07 µM); in that of `CC(C)(C)S(=O)(=O)/C(C#N)=C/c1sccc1C1OCCO1`, 35.4 µg/mL (≈ 108 µM).
